Key:
Experiment in all cases: FLIPR calcium assay, cells with promiscuous G protein transfected with bitter receptor cDNA
Format in all cases: cell-based
Details in all cases: responsive if cellular response of >10% over baseline, Fluo4-AM
[1] = biological target: T1, T2R receptor SEQ ID NO: 4 (S4) (Homo sapiens, UniProt Q9NYV8)
T1 construct: expressed in transfected cells; host or cells: cells expressing a promiscuous G protein (e.g., G16g44)
T1 sequence (Q9NYV8 1-317): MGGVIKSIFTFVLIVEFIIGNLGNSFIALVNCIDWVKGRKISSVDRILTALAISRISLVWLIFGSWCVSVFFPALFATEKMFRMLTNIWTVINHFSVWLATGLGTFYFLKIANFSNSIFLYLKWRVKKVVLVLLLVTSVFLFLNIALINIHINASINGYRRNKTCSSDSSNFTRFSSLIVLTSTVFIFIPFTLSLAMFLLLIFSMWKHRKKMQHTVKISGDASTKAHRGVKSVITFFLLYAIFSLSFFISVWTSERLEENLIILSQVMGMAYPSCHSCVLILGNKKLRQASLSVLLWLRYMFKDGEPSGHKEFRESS
Method: (§1) Cells expressing a promiscuous G protein (e.g., G16g44) were transfected with vectors encoding 22 functional bitter receptor cDNAs, with one receptor per transfection. The cells were transfected directly in 384-well format high-density plates and incubated for 28 hours. Later, cells were loaded with the Ca-specific dye Fluo4-AM. After an incubation of 60 minutes, excess dye is washed off, and cells are stimulated with respective bitter agonists while simultaneously recording changes in intracellular fluorescence using a FLIPR instrument.
(§2) The above protocol was carried out using 94 different active pharmaceutical ingredients (APIs) that span a wide range of different APIs having a diversity of chemical structures. A particular T2R receptor was identified as being responsive to a particular API if it triggered a cellular response of >10% over baseline.

[2] = biological target: T2, T2R receptor SEQ ID NO: 6 (S6) (Homo sapiens, UniProt P59540)
T2 construct: expressed in transfected cells; host or cells: cells expressing a promiscuous G protein (e.g., G16g44)
T2 sequence (P59540 1-309): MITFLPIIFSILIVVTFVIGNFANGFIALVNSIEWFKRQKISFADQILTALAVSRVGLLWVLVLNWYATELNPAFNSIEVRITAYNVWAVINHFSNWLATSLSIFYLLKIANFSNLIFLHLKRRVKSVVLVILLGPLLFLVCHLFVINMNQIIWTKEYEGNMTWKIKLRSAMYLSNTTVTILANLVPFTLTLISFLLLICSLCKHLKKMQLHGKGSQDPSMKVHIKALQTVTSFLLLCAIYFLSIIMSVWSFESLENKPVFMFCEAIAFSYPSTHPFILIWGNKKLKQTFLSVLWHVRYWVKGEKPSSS
Method: as §1, §2

[3] = biological target: T3, T2R receptor SEQ ID NO: 3 (S3) (Homo sapiens, UniProt Q9NYW0, T156M)
T3 construct: expressed in transfected cells; host or cells: cells expressing a promiscuous G protein (e.g., G16g44)
T3 sequence (Q9NYW0 1-307 T156M): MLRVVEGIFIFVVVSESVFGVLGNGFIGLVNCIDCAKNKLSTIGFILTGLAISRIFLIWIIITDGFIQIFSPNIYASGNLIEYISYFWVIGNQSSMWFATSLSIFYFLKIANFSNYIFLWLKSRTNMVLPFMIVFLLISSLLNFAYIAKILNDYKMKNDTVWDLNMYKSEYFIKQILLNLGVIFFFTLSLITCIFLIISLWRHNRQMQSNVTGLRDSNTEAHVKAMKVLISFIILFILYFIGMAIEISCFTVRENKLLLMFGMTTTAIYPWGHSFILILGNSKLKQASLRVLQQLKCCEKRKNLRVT
Method: as §1, §2

[4] = biological target: T4, T2R receptor SEQ ID NO: 1 (S1) (Homo sapiens, UniProt Q9NYW7)
T4 construct: expressed in transfected cells; host or cells: cells expressing a promiscuous G protein (e.g., G16g44)
T4 sequence (Q9NYW7 1-299): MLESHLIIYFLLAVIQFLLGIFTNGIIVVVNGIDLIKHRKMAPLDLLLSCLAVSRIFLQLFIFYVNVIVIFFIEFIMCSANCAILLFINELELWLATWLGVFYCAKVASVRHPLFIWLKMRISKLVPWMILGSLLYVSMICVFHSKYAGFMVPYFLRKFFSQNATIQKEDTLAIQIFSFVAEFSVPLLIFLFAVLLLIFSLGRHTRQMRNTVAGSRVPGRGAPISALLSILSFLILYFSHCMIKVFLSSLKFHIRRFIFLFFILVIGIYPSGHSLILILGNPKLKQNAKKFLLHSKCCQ
Method: as §1, §2

O=C(O)c1cccnc1Nc1cccc(C(F)(F)F)c1 [Niflumic Acid]
S4 positive response of T2R receptor to API [1]: + (a “+” to indicate whether a particular T2R receptor showed a positive response to a particular API)

CCN1CCN(Cc2ccc(Nc3ncc(F)c(-c4cc(F)c5nc(C)n(C(C)C)c5c4)n3)nc2)CC1 [Abamaciclib]
S6 positive response of T2R receptor to API [2]: + (a “+” to indicate whether a particular T2R receptor showed a positive response to a particular API)

Cn1cnc([N+](=O)[O-])c1Sc1ncnc2nc[nH]c12 [Azathioprine]
S6 positive response of T2R receptor to API [2]: + (a “+” to indicate whether a particular T2R receptor showed a positive response to a particular API) | S3 positive response of T2R receptor to API [3]: + (a “+” to indicate whether a particular T2R receptor showed a positive response to a particular API)

C[C@]12CCC(=O)C=C1CC[C@@H]1[C@@H]2[C@@H](O)C[C@@]2(C)[C@H]1CC[C@]2(O)C(=O)CO [Hydrocortisone]
S6 positive response of T2R receptor to API [2]: + (a “+” to indicate whether a particular T2R receptor showed a positive response to a particular API)

CCN(CC)CC(=O)Nc1c(C)cccc1C [Lidocaine]
S4 positive response of T2R receptor to API [1]: + (a “+” to indicate whether a particular T2R receptor showed a positive response to a particular API) | S3 positive response of T2R receptor to API [3]: + (a “+” to indicate whether a particular T2R receptor showed a positive response to a particular API)

Cc1cc(NS(=O)(=O)c2ccc(N)cc2)no1 [Sulfamethoxazole]
S1 positive response of T2R receptor to API [4]: + (a “+” to indicate whether a particular T2R receptor showed a positive response to a particular API)

O=C(O)Cc1ccccc1Nc1c(Cl)cccc1Cl [Diclofenac]
S4 positive response of T2R receptor to API [1]: + (a “+” to indicate whether a particular T2R receptor showed a positive response to a particular API)

CCCCc1ncc(/C=C(\Cc2cccs2)C(=O)O)n1Cc1ccc(C(=O)O)cc1 [Eprosartan]
S1 positive response of T2R receptor to API [4]: + (a “+” to indicate whether a particular T2R receptor showed a positive response to a particular API)

NS(=O)(=O)c1cc2c(cc1Cl)NCNS2(=O)=O [Hydrochlorothiazide]
S6 positive response of T2R receptor to API [2]: + (a “+” to indicate whether a particular T2R receptor showed a positive response to a particular API) | S3 positive response of T2R receptor to API [3]: + (a “+” to indicate whether a particular T2R receptor showed a positive response to a particular API)

CN1CCCC(n2nc(Cc3ccc(Cl)cc3)c3ccccc3c2=O)CC1 (stereo not drawn) [Azelastine]
S6 positive response of T2R receptor to API [2]: + (a “+” to indicate whether a particular T2R receptor showed a positive response to a particular API) | S3 positive response of T2R receptor to API [3]: + (a “+” to indicate whether a particular T2R receptor showed a positive response to a particular API)

Cn1c(=O)c2c(ncn2C)n(C)c1=O [Caffeine]
S6 positive response of T2R receptor to API [2]: + (a “+” to indicate whether a particular T2R receptor showed a positive response to a particular API) | S4 positive response of T2R receptor to API [1]: + (a “+” to indicate whether a particular T2R receptor showed a positive response to a particular API) | S3 positive response of T2R receptor to API [3]: + (a “+” to indicate whether a particular T2R receptor showed a positive response to a particular API)

CCn1cc(C(=O)O)c(=O)c2cc(F)c(N3CCNCC3)nc21 [Enoxacin]
S6 positive response of T2R receptor to API [2]: + (a “+” to indicate whether a particular T2R receptor showed a positive response to a particular API)

CC1(C)S[C@@H]2[C@H](NC(=O)[C@H](N)c3ccc(O)cc3)C(=O)N2[C@H]1C(=O)O [Amoxicillin]
S1 positive response of T2R receptor to API [4]: + (a “+” to indicate whether a particular T2R receptor showed a positive response to a particular API)

COc1ccc(-n2nc(C(N)=O)c3c2C(=O)N(c2ccc(N4CCCCC4=O)cc2)CC3)cc1 [Apixaban]
S3 positive response of T2R receptor to API [3]: + (a “+” to indicate whether a particular T2R receptor showed a positive response to a particular API)

Cc1cccn2c(=O)c(-c3nnn[nH]3)cnc12 [Pemirolast]
S4 positive response of T2R receptor to API [1]: + (a “+” to indicate whether a particular T2R receptor showed a positive response to a particular API)

CCC1=C(C)CN(C(=O)NCCc2ccc(S(=O)(=O)NC(=O)N[C@H]3CC[C@H](C)CC3)cc2)C1=O [Glimepiride]
S4 positive response of T2R receptor to API [1]: + (a “+” to indicate whether a particular T2R receptor showed a positive response to a particular API)

CN1CCC(C(=O)c2cccc(NC(=O)c3c(F)cc(F)cc3F)n2)CC1 [Lasmitidan]
S6 positive response of T2R receptor to API [2]: + (a “+” to indicate whether a particular T2R receptor showed a positive response to a particular API) | S3 positive response of T2R receptor to API [3]: + (a “+” to indicate whether a particular T2R receptor showed a positive response to a particular API)

c1ccc(CC2=NCCN2)cc1 [Tolazoline]
S6 positive response of T2R receptor to API [2]: + (a “+” to indicate whether a particular T2R receptor showed a positive response to a particular API) | S3 positive response of T2R receptor to API [3]: + (a “+” to indicate whether a particular T2R receptor showed a positive response to a particular API)

Cc1cccc(Nc2ccccc2C(=O)O)c1C [Mefenamic Acid]
S4 positive response of T2R receptor to API [1]: + (a “+” to indicate whether a particular T2R receptor showed a positive response to a particular API)

C=CCC1(C(C)CCC)C(=O)NC(=O)NC1=O (stereo not drawn) [Secobarbital Sodium]
S4 positive response of T2R receptor to API [1]: + (a “+” to indicate whether a particular T2R receptor showed a positive response to a particular API)

O=C(O)c1ccccc1Nc1cccc(C(F)(F)F)c1 [Flufenamic Acid]
S4 positive response of T2R receptor to API [1]: + (a “+” to indicate whether a particular T2R receptor showed a positive response to a particular API)

Nc1ccc(S(=O)(=O)c2ccc(N)cc2)cc1 [Dapsone]
S3 positive response of T2R receptor to API [3]: + (a “+” to indicate whether a particular T2R receptor showed a positive response to a particular API)

COc1ccc(Cc2nccc3cc(OC)c(OC)cc23)cc1OC [Papaverine]
S4 positive response of T2R receptor to API [1]: + (a “+” to indicate whether a particular T2R receptor showed a positive response to a particular API) | S3 positive response of T2R receptor to API [3]: + (a “+” to indicate whether a particular T2R receptor showed a positive response to a particular API)

Clc1ccc(COC(Cn2ccnc2)c2ccc(Cl)cc2Cl)c(Cl)c1 (stereo not drawn) [Micronazole]
S4 positive response of T2R receptor to API [1]: + (a “+” to indicate whether a particular T2R receptor showed a positive response to a particular API)

O=C(O)c1cn(C2CC2)c2cc(N3CCNCC3)c(F)cc2c1=O [Ciprofloxacin]
S6 positive response of T2R receptor to API [2]: + (a “+” to indicate whether a particular T2R receptor showed a positive response to a particular API)

CCCC(C)(COC(N)=O)COC(=O)NC(C)C (stereo not drawn) [Carisoprodol]
S4 positive response of T2R receptor to API [1]: + (a “+” to indicate whether a particular T2R receptor showed a positive response to a particular API)

O=C(CCCN1CCC(O)(c2ccc(Cl)cc2)CC1)c1ccc(F)cc1 [Haloperidol]
S4 positive response of T2R receptor to API [1]: + (a “+” to indicate whether a particular T2R receptor showed a positive response to a particular API) | S3 positive response of T2R receptor to API [3]: + (a “+” to indicate whether a particular T2R receptor showed a positive response to a particular API)

COc1ccc(C(CN(C)C)C2(O)CCCCC2)cc1 (stereo not drawn) [Venlafaxine]
S6 positive response of T2R receptor to API [2]: + (a “+” to indicate whether a particular T2R receptor showed a positive response to a particular API) | S3 positive response of T2R receptor to API [3]: + (a “+” to indicate whether a particular T2R receptor showed a positive response to a particular API)

From patent publication US20250271426A1, “REDUCTION OF BITTER TASTE OF ACTIVE PHARMACEUTICAL INGREDIENTS AND RELATED ASSAYS AND SCREENING METHODS” (Firmenich Incorporated, priority 2022, published 2025)
